The record followed here is paper PMC9319939, “Siccanin Is a Dual-Target Inhibitor of Plasmodium falciparum Mitochondrial Complex II and Complex III” (Pharmaceuticals, 2022).

One assay has as its target P. falciparum complex II (Plasmodium falciparum, UniProt Q8I5S5+Q8IJU2). The experiment in a line: succinate:ubiquinone reductase (SQR) activity, crude mitochondrial fraction, DCIP reduction. Type of assay: biochemical. Conditions: siccanin 10 μM; read-out: Relative residual activity of SQR. Here is the method: A synchronized parasite culture was grown for 64 h and a crude mitochondrial fraction was prepared from trophozoite-stage cells (as confirmed by Giemsa staining). Infected red blood cells were collected by centrifugation at 800× g for 5 min at 4 °C and incubated for 5 min at room temperature with 40 mL of 0.075% (w/v) saponin in AIM buffer (120 mM KCl, 20 mM NaCl, 10 mM PIPES (1,4-piperazinediethanesulfonic acid) buffer [pH 6.7], 1 mM MgCl2, 5 mM glucose). Released parasites were collected by centrifugation at 2780× g for 7 min at 4 °C and washed three times with AIM buffer. […]
Complex II, DHODH, MQO, NDH2, G3PDH, and dihydroorotate-cytochrome c (DHO-cyt c) reductase activities were measured, as described previously, using a V-660 spectrophotometer (JASCO; Tokyo, Japan). Briefly, complex II activity was measured at 25 °C in a 1 mL reaction mixture containing 45 μM 2,6-dichlorophenolidophenol (DCIP), 100 μM ubiquinone-2 (UQ2), and 2 mM KCN in 50 mM potassium phosphate buffer, pH 8.0. DHODH, MQO, and G3PDH activities were measured at 25 °C in 1 mL of the reaction mixture containing 45 μM DCIP, 100 μM UQ2, and 2 mM KCN in 30 mM Tris-HCl buffer, pH 8.0. […] NDH2 activity was measured at 25 °C in 1 mL of the reaction mixture containing 100 µM UQ1 and 2 mM KCN in 50 mM potassium phosphate buffer, pH 8.0. […]

In assay [1] the target is mammalian complex I and III (Sus scrofa, UniProt F1RNZ1+P24964). Kind of assay: NADH-cytochrome c reductase activity in porcine mitochondria. Type of assay: biochemical. How it is done:
Porcine mitochondria were prepared as described previously. NADH-cytochrome c (NADH-cyt c) activity was measured at 25 °C in 1 mL of the reaction mixture containing 1 mM MgCl2, 2 mM KCN, and 20 μM cytochrome c in 30 mM potassium phosphate buffer, pH 7.5. Activity was measured by recording the absorbance change of cytochrome c at 550 nm after the reaction was initiated by the addition of 20 μM NADH. Various concentrations of siccanin dissolved in DMSO were added to reaction mixtures 5 min before the initiation of the reactions. Selectivity was calculated as the ratio of mammalian to P. falciparum IC50s.

Another assay has as its system Δsdha-3D7 P. falciparum. Kind of assay: Drug sensitivity assay, 72 h, PfLDH-based, sdha-disrupted strain. The assay is classed as cell-based. The settings on record: Plasmodium falciparum, 3D7, read-out: Growth IC50, Δsdha-3D7. Here is the method:
The P. falciparum 3D7 strain was cultured, as described previously, in 3% hematocrit type A human red blood cells (RBCs) in RPMI1640 medium (Invitrogen; San Diego, CA, USA) supplemented with 25 mM sodium hydrogen biocarbonate, 10 μg/mL hypoxanthine, 40 μg/mL gentamicin sulfate, and 0.5% (w/v) Albumax II (Invitrogen) (“complete medium”). Cultures were maintained in a MG-70M multi-gas incubator (Taitec) under the conditions of 5% O2, 5% CO2, and 90% N2 at 37 °C. The medium was replaced daily. Parasitemia was measured by thin blood smears stained with Giemsa. In our previous study, we generated mutant P. falciparum strains expressing either disrupted or full-length versions of the flavoprotein (Fp) subunit (encoded by the Pfsdha gene). […]
Synchronized ring-form parasites (0.3% parasitemia) were prepared in complete medium containing different concentration of various compounds (at a fixed final DMSO concentration of 0.1% (v/v)) and distributed to 96-well plates at 100 μL/well. After 72 h of incubation, parasite growth was monitored by the previously described lactate dehydrogenase (PfLDH)-based assay method; plates were read using a SpectraMax® Paradigm spectrophotometer (Molecular Devices, Inc.; San Jose, CA, USA). EC50 values were calculated using Prism® ver.6.01 (GraphPad; San Diego, CA, USA). […]

What is called IC50 is the concentration that gives 50% inhibition.

Sequence of mammalian complex I and III (F1RNZ1 entry or part of it): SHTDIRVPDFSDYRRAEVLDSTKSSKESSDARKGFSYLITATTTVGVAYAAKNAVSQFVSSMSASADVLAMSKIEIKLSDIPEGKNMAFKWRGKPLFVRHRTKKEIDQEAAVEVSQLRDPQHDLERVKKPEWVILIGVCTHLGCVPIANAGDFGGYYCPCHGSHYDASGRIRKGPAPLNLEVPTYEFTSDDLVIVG
Sequence of mammalian complex I and III (P24964 whole entry): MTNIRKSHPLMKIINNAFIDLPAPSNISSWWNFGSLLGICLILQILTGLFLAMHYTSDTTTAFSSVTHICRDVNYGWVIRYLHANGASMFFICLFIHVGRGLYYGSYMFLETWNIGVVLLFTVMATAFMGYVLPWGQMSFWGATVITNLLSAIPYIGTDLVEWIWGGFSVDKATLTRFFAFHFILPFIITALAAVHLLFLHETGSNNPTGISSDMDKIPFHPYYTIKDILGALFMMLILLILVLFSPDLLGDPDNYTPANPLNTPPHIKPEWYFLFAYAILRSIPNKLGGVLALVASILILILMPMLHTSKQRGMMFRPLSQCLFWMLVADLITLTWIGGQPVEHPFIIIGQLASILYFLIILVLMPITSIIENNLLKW
Sequence of mammalian complex I and III (F1SKM0 entry or part of it, further chain): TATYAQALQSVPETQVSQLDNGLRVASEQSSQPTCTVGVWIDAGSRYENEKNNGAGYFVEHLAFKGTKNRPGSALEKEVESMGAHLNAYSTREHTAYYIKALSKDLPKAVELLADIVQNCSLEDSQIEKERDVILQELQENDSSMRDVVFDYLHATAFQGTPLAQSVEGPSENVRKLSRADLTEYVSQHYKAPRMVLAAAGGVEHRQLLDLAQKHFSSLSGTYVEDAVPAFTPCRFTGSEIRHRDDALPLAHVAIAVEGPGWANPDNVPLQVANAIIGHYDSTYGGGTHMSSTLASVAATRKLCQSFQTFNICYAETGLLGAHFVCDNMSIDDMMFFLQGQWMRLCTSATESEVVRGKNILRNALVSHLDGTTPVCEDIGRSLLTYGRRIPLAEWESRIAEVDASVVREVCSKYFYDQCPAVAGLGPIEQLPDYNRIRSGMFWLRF
Sequence of P. falciparum complex II (Q8IJ66 entry or part of it): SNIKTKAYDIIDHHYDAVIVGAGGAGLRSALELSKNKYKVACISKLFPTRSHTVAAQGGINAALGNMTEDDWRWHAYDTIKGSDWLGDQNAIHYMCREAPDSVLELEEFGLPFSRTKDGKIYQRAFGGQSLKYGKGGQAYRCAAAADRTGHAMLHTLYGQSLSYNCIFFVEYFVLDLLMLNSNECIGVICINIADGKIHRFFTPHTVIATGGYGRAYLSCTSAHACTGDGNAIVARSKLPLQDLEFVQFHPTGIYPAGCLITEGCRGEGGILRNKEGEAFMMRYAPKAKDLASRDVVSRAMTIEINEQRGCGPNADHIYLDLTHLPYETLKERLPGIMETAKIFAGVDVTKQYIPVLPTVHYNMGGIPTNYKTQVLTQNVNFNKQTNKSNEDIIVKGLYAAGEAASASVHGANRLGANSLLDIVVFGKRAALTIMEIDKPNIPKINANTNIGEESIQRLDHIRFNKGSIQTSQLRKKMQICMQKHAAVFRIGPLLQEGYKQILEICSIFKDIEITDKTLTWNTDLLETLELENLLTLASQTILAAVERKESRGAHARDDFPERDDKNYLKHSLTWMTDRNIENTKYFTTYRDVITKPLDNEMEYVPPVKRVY
Sequence of P. falciparum complex II (Q8IJU2 entry or part of it): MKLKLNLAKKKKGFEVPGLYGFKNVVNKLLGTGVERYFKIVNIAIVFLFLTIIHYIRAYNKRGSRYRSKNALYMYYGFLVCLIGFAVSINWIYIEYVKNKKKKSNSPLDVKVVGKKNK
Sequence of P. falciparum complex II (Q8I5S5 entry or part of it): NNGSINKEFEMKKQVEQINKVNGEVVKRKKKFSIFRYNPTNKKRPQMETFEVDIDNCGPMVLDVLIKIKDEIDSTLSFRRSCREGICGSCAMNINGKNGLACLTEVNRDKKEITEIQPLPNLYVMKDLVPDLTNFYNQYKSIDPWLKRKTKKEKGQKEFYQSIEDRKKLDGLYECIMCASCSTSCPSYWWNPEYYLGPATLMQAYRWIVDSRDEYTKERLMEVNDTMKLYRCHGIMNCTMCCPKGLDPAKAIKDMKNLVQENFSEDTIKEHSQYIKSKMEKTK

With `Cc1cc(O)c2c(c1)O[C@@]1(C)CC[C@H]3C(C)(C)CCC[C@]34CO[C@@H]2[C@H]41` [Siccanin], the remaining activity at 10 µM at P. falciparum complex II was found to be 2.7 ± 6.5%. For the same molecule, the “Effect on mammalian complex I and III” value in assay [1] (concentrations as high as 500 µM) is “did not inhibit”. Moreover, the IC50 in assay [1] (read-out: Siccanin IC50, Mammal, Complex III, NADH-cytochrome c reductase, porcine mitochondria) is more than 500 µM; in the assay on Δsdha-3D7 P. falciparum, 6.13 ± 0.91 µM.
